Key:
ADAM10 = molecular target: T1, ADAM10 (Homo sapiens, UniProt O14672); experiment: IC50 of GI254023X (assay not given)
T1 sequence (O14672 214-748): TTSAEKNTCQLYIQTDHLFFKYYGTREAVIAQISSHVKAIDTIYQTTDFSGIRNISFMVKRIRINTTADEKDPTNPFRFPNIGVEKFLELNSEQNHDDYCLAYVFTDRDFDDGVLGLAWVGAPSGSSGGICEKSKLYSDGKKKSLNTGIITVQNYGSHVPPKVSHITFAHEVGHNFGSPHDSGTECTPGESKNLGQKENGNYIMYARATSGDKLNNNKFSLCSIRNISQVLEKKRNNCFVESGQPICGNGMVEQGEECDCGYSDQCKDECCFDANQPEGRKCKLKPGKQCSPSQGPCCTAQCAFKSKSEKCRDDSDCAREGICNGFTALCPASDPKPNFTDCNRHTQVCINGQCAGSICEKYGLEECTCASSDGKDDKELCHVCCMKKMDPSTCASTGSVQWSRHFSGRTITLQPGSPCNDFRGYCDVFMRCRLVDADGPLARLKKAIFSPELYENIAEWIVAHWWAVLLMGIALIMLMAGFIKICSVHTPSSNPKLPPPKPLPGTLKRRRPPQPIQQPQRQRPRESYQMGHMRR

[1] = tested on: Hla-mediated cytotoxicity; conditions: cited from earlier work
A549 cells = format: cell-based

CNC(=O)[C@@H](NC(=O)[C@H](CCCc1ccccc1)[C@H](C)N(O)C=O)C(C)(C)C [GI254023X, (R)—N—((S)-3,3-dimethyl-1-(methylamino)-1-oxobutan-2-yl)-2-((S)-1-(N-hydroxyformamido)-ethyl)-5-phenylpentanamide]
IC50 (ADAM10): ~5 µM | effect on Hla-mediated cytotoxicity [1]: prevents Hla-mediated cytotoxicity | inhibition of binding of radiolabelled Hla to A549 cells (A549 cells): inhibition of binding of radiolabelled Hla to A549 cells

From US10472391B2 (priority 2013, dated 2019)
